Results on 3 compounds are retold here after patent EP3723745B1, “PHENOXY ACIDS FOR THE TREATMENT OF NEUROMUSCULAR DISORDERS” (NMD Pharma A/S, priority 2017, dated 2019).

One assay deals with T1, CIC-1 channels (Rattus norvegicus, UniProt P35524).
T1 construct: from tissue; host or cells: intact soleus muscle of 12-14-week old Wistar rats
T1 sequence (P35524 1-994): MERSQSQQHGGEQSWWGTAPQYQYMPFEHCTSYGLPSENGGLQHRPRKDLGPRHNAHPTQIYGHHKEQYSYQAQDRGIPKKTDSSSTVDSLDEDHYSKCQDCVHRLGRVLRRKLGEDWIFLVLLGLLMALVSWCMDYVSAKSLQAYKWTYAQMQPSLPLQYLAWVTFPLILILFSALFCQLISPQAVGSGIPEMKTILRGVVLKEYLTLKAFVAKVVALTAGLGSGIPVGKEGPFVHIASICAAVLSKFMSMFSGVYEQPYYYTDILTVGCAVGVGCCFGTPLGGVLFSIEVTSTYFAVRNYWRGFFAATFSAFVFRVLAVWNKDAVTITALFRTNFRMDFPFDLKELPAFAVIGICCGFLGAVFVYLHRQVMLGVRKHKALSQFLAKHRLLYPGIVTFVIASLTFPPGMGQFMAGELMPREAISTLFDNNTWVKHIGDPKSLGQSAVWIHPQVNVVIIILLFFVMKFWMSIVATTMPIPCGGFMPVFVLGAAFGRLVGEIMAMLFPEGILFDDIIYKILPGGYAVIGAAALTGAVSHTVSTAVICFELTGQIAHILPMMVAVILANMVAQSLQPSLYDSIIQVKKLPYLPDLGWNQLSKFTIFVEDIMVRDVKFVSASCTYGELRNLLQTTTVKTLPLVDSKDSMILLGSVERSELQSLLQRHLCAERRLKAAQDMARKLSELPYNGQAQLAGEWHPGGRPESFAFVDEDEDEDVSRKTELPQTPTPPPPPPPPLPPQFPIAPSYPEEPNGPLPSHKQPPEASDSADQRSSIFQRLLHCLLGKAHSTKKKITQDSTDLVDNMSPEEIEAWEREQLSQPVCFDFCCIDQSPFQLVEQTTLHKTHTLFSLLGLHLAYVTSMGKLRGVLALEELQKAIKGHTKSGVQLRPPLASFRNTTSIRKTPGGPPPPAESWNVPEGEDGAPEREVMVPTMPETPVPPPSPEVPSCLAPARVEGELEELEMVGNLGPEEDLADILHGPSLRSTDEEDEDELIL
Nature of the assay: Electrophysiological measurement of compound inhibition of CIC-1 in rat muscle (Gm, three micro-electrodes technique). In kind it is cell-based. As to conditions: reduction of Gm in fibres of whole rat soleus muscles, approx. 30°C; n = number of experiments. From the text:
Table 2: Inhibition of CIC-1 ion channel using compounds of the invention

The next assay relates to female Lewis rats. Nature of the assay: Measurement of in situ muscle contractile characteristics (isometric hindlimb force, cisatracurium block). The class given is in vivo, rat. As to conditions: for average increase in twitch peaks: 12 Hz; for average increase in twitch peaks / average increase in tetanic force: cisatracurium infusion; for average increase in tetanic force: 80 Hz; for restore force to muscles in vivo: muscles partially inhibited by a neuromuscular blocker, summary in words. The procedure:
Isometric hindlimb force was measured in 12-week old female Lewis rats in the presence and absence of compound.
Rats were placed under anesthesia with isoflurane (2-4%), intubated and subsequently connected to a micro ventilator (Microvent 1, Hallowell EMC, US). Two stimulation electrodes were inserted through the skin to stimulate the sciatic nerve. A small incision was made proximal to the ankle, to expose the Achilles tendon, which was tied by cotton string, and connected to a force transducer (Fort250, World Precision Instruments) with adjustable position (Vernier control). The Achilles tendon was then cut distal to the attached cotton string. The rat was placed on a heated pad, and to prevent movement artefacts from contraction of the ankle dorsiflexors, the foot was fixated by tape on a footplate.
Muscle contractile properties were assessed by applying an electrical current (under supramaximal voltage conditions) to the nerve and recording the force generated by the muscle. The muscle was stretched until maximal force was obtained, when assessed by 2 Hz stimulation. Isometric force was measured every 30 seconds at 12 Hz (Twitch), 10 pulses, and at every 5 minutes at 80 Hz (Tetanic) for 1 second (80 pulses). This stimulation pattern was employed throughout the experiment, expect in few cases where 80 Hz stimulation was replaced by 12 Hz (10 pulses). […] When the level of neuromuscular inhibition was stable, the test article was injected i.v. at the chosen concentration. The effect of test article was assessed on its ability to increase force generated from the stimulation pattern applied. The effect was assessed in the ability to increase force per se (tetanic, 80 Hz, stimulation), and the ratio between individual twitch peaks (12 Hz stimulation). The effect was monitored for at least 1 hour after injection of test article. In addition, the time from injection of test article to maximal effect on force (both twitch and tetanic) was noted and the time for the effect to disappear (return to baseline), if possible. When appropriate the infusion of neuromuscular blocking agent was ceased, with the stimulation pattern continued, and the return of force to control levels was monitored. Animals were sacrificed by cervical dislocation while still fully sedated.

`CC(C)[C@H](Oc1ccc(Br)cc1F)C(=O)O` [Compound A-27, (2S)-2-(4-bromo-2-fluorophenoxy)-3-methylbutanoic acid] came in with an EC50 on CIC-1 channels of 4.5 µM. Further, in the assay with female Lewis rats (40 mg/kg i.v.), the “average increase in twitch peaks” value was found to be 12.2% and the “average increase in tetanic force” value came to 36.4%. The “restore force to muscles in vivo” value in the assay with female Lewis rats was “can restore force”.
On to `[2H][C@@](CC)(Oc1ccc(Br)cc1)C(=O)O` [Compound A-60, (2S)-2-(4-bromophenoxy)(2-^2H)butanoic acid], for which, at CIC-1 channels, the EC50 amounted to 7.5 ± 1 µM. In the assay with female Lewis rats (20 mg/kg i.v.), the “average increase in twitch peaks” value was 18.5% and the “average increase in tetanic force” value is recorded as 52.7%. The “restore force to muscles in vivo” value with female Lewis rats is recorded as “can restore force”.
Take `O=C(O)[C@H](CCF)Oc1ccc(Br)cc1` [Compound A-87, (2S)-2-(4-bromophenoxy)-4-fluorobutanoic acid]: the EC50 at CIC-1 channels is 4.5 ± 0.8 µM. In the assay on female Lewis rats (42 mg/kg i.v.), the “average increase in twitch peaks” value was determined as 5.8% and the “average increase in tetanic force” value turned out to be 19.3%. For the same compound, the “restore force to muscles in vivo” value in the assay with female Lewis rats is listed as “can restore force”.

As a reminder, the EC50 is the concentration at which the effect is half-maximal. A high value points to a need for much substance.
